Assay results: the NIST ThermoML archive (doi:10.1016/j.jct.2006.07.017)

Columns and labels:
[1] = refractive index (Na D-line) (dimensionless); conditions: 298.15 K; 101.33 kPa; Liquid; Standard Abbe refractometry
[2] = 298.15 K; 101.33 kPa; Liquid
[3] = xn = mol fraction of the nth substance listed; conditions: 101 kPa, Liquid

Cc1ccccc1C [1,2-dimethylbenzene]
Conditions	mass density [kg/m3]	refractive index
[1]	–	1.5057
[2]	875.73	–

Cc1cccc(C)c1 [1,3-dimethylbenzene]
Conditions	mass density [kg/m3]	refractive index
[1]	–	1.4973
[2]	859.83	–

Cc1ccc(C)cc1 [1,4-dimethylbenzene]
Conditions	mass density [kg/m3]	refractive index
[1]	–	1.4958
[2]	856.58	–

Cc1ccc(C)cc1 [1,4-dimethylbenzene] + CN(C)C=O
[3]
Conditions	mass density [kg/m3]
293.15 K, x1 = 0.0562	941.87
293.15 K, x1 = 0.1211	934.47
293.15 K, x1 = 0.1885	927.18
293.15 K, x1 = 0.2532	920.51
293.15 K, x1 = 0.3225	913.72
293.15 K, x1 = 0.3865	907.74
293.15 K, x1 = 0.4525	901.85
293.15 K, x1 = 0.5121	896.75
293.15 K, x1 = 0.5853	890.75
293.15 K, x1 = 0.6441	886.12
293.15 K, x1 = 0.7154	880.72
293.15 K, x1 = 0.7664	876.98
293.15 K, x1 = 0.8353	872.08
293.15 K, x1 = 0.8901	868.29
293.15 K, x1 = 0.9577	863.74
303.15 K, x1 = 0.0625	931.96
303.15 K, x1 = 0.1321	924.04
303.15 K, x1 = 0.1912	917.66
303.15 K, x1 = 0.2684	909.75
303.15 K, x1 = 0.3325	903.53
303.15 K, x1 = 0.3965	897.61
303.15 K, x1 = 0.4584	892.15
303.15 K, x1 = 0.5214	886.82
303.15 K, x1 = 0.5853	881.64
303.15 K, x1 = 0.6485	876.73
303.15 K, x1 = 0.7112	872.04
303.15 K, x1 = 0.7866	866.61
303.15 K, x1 = 0.8415	862.79
303.15 K, x1 = 0.9054	858.48
303.15 K, x1 = 0.9658	854.51
313.15 K, x1 = 0.0455	924.59
313.15 K, x1 = 0.1112	916.97
313.15 K, x1 = 0.1862	908.77
313.15 K, x1 = 0.2562	901.56
313.15 K, x1 = 0.3215	895.19
313.15 K, x1 = 0.3952	888.37
313.15 K, x1 = 0.4514	883.43
313.15 K, x1 = 0.5111	878.4
313.15 K, x1 = 0.5841	872.52
313.15 K, x1 = 0.6451	867.83
313.15 K, x1 = 0.7124	862.86
313.15 K, x1 = 0.7854	857.69
313.15 K, x1 = 0.8451	853.61
313.15 K, x1 = 0.9011	849.9
313.15 K, x1 = 0.9655	845.75

CN(C)C=O [dimethylformamide]
Conditions	mass density [kg/m3]	refractive index
[1]	–	1.4307
[2]	943.85	–
